Source: US8158621B2, “Methods of treating or preventing autoimmune diseases with 2,4-pyrimidinediamine compounds” (Rigel Pharmaceuticals, Inc., priority 2002, dated 2012)
pIC50: −log10 of the molar value. Where “and” joins values, the source holds several entries; their conditions need not be identical. Equal values may be shown once. Each block holds one compound with its values, some of them ahead of it.

Experiments:
[1] = test system: cultured human mast cells (CHMC); experiment: CHMC low cell density IgE activation: tryptase assay; format: cell-based; conditions: Low Density CHMC, anti-IgE activation, tryptase release; read-out: CHMC anti-IgE Tryptase IC50
Method in brief: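 CHMC resuspended in pre-warmed MT buffer at 1000-1500 cells/well (donor-dependent) and preincubated 1 hr at 37° C, then stimulated with anti-IgE for 30 min at 37° C; unstimulated wells got MT alone. Supernatant tryptase activity read with tryptase substrate after 30 min at room temperature.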

[2] = test system: cultured human mast cells (CHMC); experiment: CHMC low cell density IgE activation: LTC4 assay; format: cell-based; conditions: anti-IgE activation, LTC4 release
Experimental: Pellet CHMC cells (980 rpm, 10 min) and resuspend in pre-warmed MT. Add 65 ul of cells to each 96-well plate. Depending on the degranulation activity for each particular CHMC donor, load 1000-1500 cells/well. Mix four times followed by a 1 hr incubation at 37° C. […] Stimulate cells by adding 25 ul of 6× anti-IgE solution to the appropriate plates. Add 25 ul MT to un-stimulated control wells. Mix twice following addition of the anti-IgE. Incubate at 37° C. for 30 minutes. […] Spin plates at 1000 rpm for 10 min to pellet cells. Transfer 25 ul of supernatant to a 96-well black bottom plate and add 100 ul of freshly diluted tryptase substrate solution to each well. Incubate plates at room temperature for 30 min.
Leukotriene C4 (LTC4) is also quantified using an ELISA kit on appropriately diluted supernatant samples (determined empirically for each donor cell population so that the sample measurement falls within the standard curve) following the supplier's instructions.

[3] = test system: cultured human mast cells (CHMC); experiment: CHMC low cell density ionomycin activation: tryptase assay; format: cell-based; conditions: Low Density CHMC, ionomycin activation, tryptase release; read-out: CHMC Ionomycin Tryptase IC50
[4] = test system: cultured human mast cells (CHMC); experiment: CHMC high cell density IgE activation: hexos; format: cell-based
Experimental: (§1) After sensitizing, cells are counted, pelleted (1000 rpm, 5-10 minutes), and resuspended at 1-2 ×10^6 cells/ml in MT buffer. Add 100 ul of cell suspension to each well and 100 ul of compound dilutions. The final vehicle concentration is 0.5% DMSO. Incubate at 37° C. (5% CO2) for 1 hour. After 1 hour of compound treatment, stimulate cells with 6× anti-IgE. Mix wells with the cells and allow plates to incubate at 37° C. (5% CO2) for one hour. After 1 hour incubation, pellet cells (10 minutes, 1000 RPM) and collect 200 ul per well of the supernatant, being careful not to disturb pellet. Place the supernatant plate on ice. During the 7-hour step (see next) perform tryptase assay on supernatant that had been diluted 1:500. Resuspend cell pellet in 240 ul of CM media containing 0.5% DMSO and corresponding concentration of compound. Incubate CHMC cells for 7 hours at 37° C. (5% CO2). After incubation, pellet cells (1000 RPM, 10 minutes) and collect 225 ul per well and place in −80° C. until ready to perform ELISAS. ELISAS are performed on appropriately diluted samples (determined empirically for each donor cell population so that the sample measurement falls within the standard curve) following the supplier's instructions.
Add 50 uL of BMMC cell supernatant (see above) to the hexoseaminidase substrate, place at 37° C. for 30 minutes and read the plate at 5, 10, 15, and 30 minutes on a spectrophotometer.

[5] = test system: cultured human mast cells (CHMC); experiment: CHMC high cell density IgE activation: tryptase; format: cell-based
Experimental: as §1

[6] = test system: cultured human mast cells (CHMC); experiment: CHMC high cell density IgE activation: histamine; format: cell-based
Experimental: as §1

[7] = test system: cultured human mast cells (CHMC); experiment: CHMC high cell density IgE activation: LTC4; format: cell-based
Experimental: as §1

[8] = test system: cultured human mast cells (CHMC); experiment: CHMC high cell density IgE activation: TNFalpha; format: cell-based; conditions: read-out: CHMC high density TNF-alpha
Experimental: as §1

Jurkat cells = experiment: Jurkat toxicity, Cell Titer Glo assay; format: cell-based, human
Experimental: Seed 50 μl cells (1×10^6/ml) into each well containing 50 μl compound. […] Shake plates for 1 minute to mix cells and compound. Incubate plates at 37° C. […] Next day, harvest 50 μl cells from each well, add to 50 μl Cell Titer Glo reagent ([…]). Shake plates for 1 minute. Read on luminometer.

[9] = test system: Human Jurkat T-cells (clone N); experiment: Jurkat T-cell activation (anti-TCR, CD69 upregulation); format: cell-based
Method in brief: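 Jurkat cells in RPMI + 5% FBS preincubated with compound 1 h at 37 °C, then stimulated with anti-TCR C305 at 500 ng/ml for 20 h. CD69 surface expression stained with anti-CD69-APC and read by flow cytometry; IC50 versus solvent-only control.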

[10] = test system: FcγRI-mediated degranulation; experiment: FcγRI-mediated degranulation (anti-human IgG Fab activation); format: cell-based; conditions: cells not primed with IgE, activated with rabbit anti-human IgG Fab fragment
Syk kinase = biological target: T1, Syk kinase (Homo sapiens, UniProt P43405); experiment: Syk kinase biochemical fluorescence polarization assay; conditions: isolated Syk kinase, fluorescence polarization, 4 uM ATP
T1 construct: purchased Upstate, Lake Placid NY

Primary human B-cells = experiment: Primary B-cell activation (α-IgM, CD69 upregulation); format: cell-based; conditions: read-out: 1° B-Cell CD69 IC50
Experimental: Primary human B-cells were isolated from buffy coat, the white cell layer that forms between the red cells and the […] when anti-coagulated blood is centrifuged, or from fresh blood using CD19-Dynal® beads and a FACS. Buffy coat was obtained from the Stanford Medical School Blood Centre, prepared on the same day by the blood bank, stored and transported cold (with ice). The buffy coat (approx 35 mL) was placed in a 500 mL conical sterile centrifuge pot and cooled on ice, then diluted with cold PBS containing 0.2% BSA (Sigma: A7638) and sodium citrate (0.1%, Sigma: S-5570) (P—B—C) to a total volume of 200 mL and mixed gently. Fresh blood was collected from donors in 10 mL vacutainers containing heparin (1 vacutainer collects approximately 8.5 mL blood). The blood was cooled on ice, transferred into 50 mL falcon tubes (20 mL/tube) or a 500 mL conical sterile centrifuge pot, and diluted with an equal volume P—B—C.
25 mL diluted blood or buffy coat was layered onto 15 mL cold ficoll and placed back on ice. The ficoll layered blood was centrifuged (Beckman GS-6R) for 45 minutes at 2000 rpm, 4° C. to separate the Peripheral Blood Mononuclear Cells (PBMC) from the Red Blood Cells (RBC) and granulocytes. The top aqueous layer was then aspirated until 1 inch above the PBMC layer. The PBMCs were transferred from every 2 ficoll tubes into one clean 50 mL falcon tube (=approx 10 mL/tube). The transferred PBMCs were diluted 5× with icecold PBS with 0.2% BSA (P—B) and centrifuged for 20 min at 1400 rpm and 4° C. The supernatant (this may be cloudy) was then aspirated and the PBMCs resuspended into 25 mL P—B and the cells counted (using a 1:5 dilution) and kept on ice.
The cells were then positively selected using anti-CD 19 antibody coupled to magnetic beads (Dynal®) as per manufacturer's instructions. The approximate required amount of CD19-Dynal® beads (CD19-coated dyna beads M-450 (pabB), Dynal®) was calculated by estimating the number of B-cells as 5% of PBMCs counted and adding approximately10 beads per cell from the bead stock (4×10^8 beads/mL). The CD19-Dynal® beads were washed 2× in P—B in a 5 mL tube using the Dynal® magnet, then added into the suspended PBMCs. This mixture was then passed through the Dynal® magnet and washed several times to separate the bead-bound cells.
After separation, the beads and antibody were removed using Dynal® CD19-DETACHaBEAD® for 45 min at 30° C. Yield is typically 2×10^7 B-cells per buffy coat. B-cells were washed and resuspended as 1E6 cells/mL in RPMI1640+10% FBS+Penicillin/[…]+1 ng/mL IFNα8. Cells were rested overnight at 37° C. and 5% CO2.
The following day, cells were washed and resuspended in RPMI+2.5% FBS to 1×10^6 cells/mL. Cells were then aliquoted into a V-bottom 96-well plate (Corning) at 65 uL cells per well. By robot, 65 uL of a 2× compound was added to the cells with final concentration of DMSO at 0.2%, and incubated for 1 hr at 37° C. Cells were then stimulated with 20 uL 7.5× α-IgM from Jackson laboratories (final 5 ug/mL) for 24 hrs. At day 3, the cells were spun down and stained for CD69 and analyzed by FACS gated on the live cells (by light scatter).
Varied concentrations of compound were compared to solvent only to determine the inhibition of B-cell activation IC50 of each compound.

[11] = test system: basophil cells (human peripheral blood); experiment: Basophil anti-IgE activation: histamine release assay; format: cell-based; conditions: basophils, anti-IgE activation, histamine release; read-out: Basophils anti-IgE Histamine IC50
Experimental: (§2) The basophil activation assay was carried out using whole human peripheral blood from donors allergic to dust mites with the majority of the red blood cells removed by dextran sedimentation. Human peripheral blood was mixed 1:1 with 3% dextran T500 and RBCs were allowed to settle for 20-25min. The upper fraction was diluted with 3 volumes of D-PBS and cells were spun down for 10 min at 1500 rpm, RT. Supernatant was aspirated and cells were washed in an equal volume MT-buffer. Finally, cells were resuspended in MT-buffer containing 0.5% DMSO in the original blood volume. 80 uL cells were mixed with 20 uL compound in the presence of 0.5% DMSO, in triplicate, in a V-bottom 96-well tissue culture plate. A dose range of 8 compound concentrations was tested resulting in a 10-point dose response curve including maximum (stimulated) and minimum (unstimulated) response. […] The cells were stimulated for 30 minutes at 37° C., 5% CO2. The plate was spun for 10 min at 1500 rpm at room temperature and 80 uL the supernatant was harvested for histamine content analysis using the histamine ELISA kit supplied by Immunotech. The ELISA was performed according to supplier's instructions.

[12] = test system: basophil cells (human peripheral blood); experiment: Basophil ionomycin activation: histamine release assay; format: cell-based; conditions: basophils, ionomycin activation, histamine release; read-out: Basophils Ionomycin Histamine IC50
Experimental: as §2
Assays for ionomycin-induced basophil cell degranulation were carried out as described for the Basophil IgE or Dustmite Activation Assay (Section 7.5.5, supra), with the exception that following incubation with compound, cells were stimulated with 20 μl of 2 μM ionomycin.

[13] = Mouse Reverse Passive Arthus reaction (RPA reaction); format: in vivo, C57BL/6 mice; conditions: oral, 200 mg/kg
Method in brief: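 C57BL/6 mice dosed with compound before challenge, pretreatment time set by each compound's PK; rabbit anti-OVA IgG (50 μg/mouse) given intradermally, then ovalbumin 20 mg/kg i.v. with 1% Evans blue. Dorsal skin edema and hemorrhage read by dye extravasation at 4 h; purified polyclonal rabbit IgG as control.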

[14] = test system: differentiated human macrophages; experiment: Macrophage activation, IgG stimulation: TNF; format: cell-based; conditions: stimulus (IgG or LPS) not given; read-out: Monocytes/Macrophage TNF IC50
Experimental: Purity was assessed by measuring the percentage of CD14+ cells by flow cytometry.
A negative control consisting of the F(ab′)2 fragment was also coated to assess background stimulation. Unbound antibody was washed away 2× with 200 ul PBS. […] The cells were incubated for 16 hr in a 37° C. incubator, and supernatants were collected for Luminex analysis for IL-6 and TNFα, essentially as described for the primary T-cells, above.

[15] = test system: differentiated human macrophages; experiment: Macrophage activation, IgG stimulation: IL-6; format: cell-based; conditions: stimulus (IgG or LPS) not given; read-out: Monocytes/Macrophage IL-6 IC50
Experimental: CD 14+ monocytes were purified from PBMC (Allcells # PB002) using the Monocyte Isolation kit (Miltenyi biotec #130-045-501) as per the manufacturer's instructions. Purity was assessed by measuring the percentage of CD14+ cells by flow cytometry. Typically >90% purity is achieved. The purified CD14+ cells are then plated out (6×10^6 cells/150 cm TC dish in 15 mls media) in Macrophage-SFM (Gibco #12065-074) with 100 ng/ml of M-CSF (Pepro Tech #300-25) and allowed to differentiate for five days. At the end of that period, cell morphology and cell surface markers (CD14, HLA-DR, B7.1, B7.2, CD64, CD32, and CD16) reflected the presence of mature differentiated macrophage.
A negative control consisting of the F(ab′)2 fragment was also coated to assess background stimulation. Unbound antibody was washed away 2× with 200 ul PBS. 20 ul of 5× compound was added to each well, followed by the addition 15 k cells of differentiated macrophage in 80 uL that had been scraped off of the plates. The cells were incubated for 16 hr in a 37° C. incubator, and supernatants were collected for Luminex analysis for IL-6 and TNFα, essentially as described for the primary T-cells, above.
Varied concentrations of compound were compared to solvent only to determine the IC50 of each compound for each cytokine Representative IC50 s for 2,4-pyrimidinediamine compounds of the invention are shown in Table 11.

- pIC50 [1]: 6.60
- pIC50 [2]: 7.11
- pIC50 [3]: 5.04
- pIC50 [4]: 6.05
- pIC50 [5]: 5.96
- pIC50 [6]: 5.88
- pIC50 [7]: 6.32
- pIC50 [8]: < 5.70
- pIC50 [9]: 5.45
Compound: CNC(=O)c1cc2cc(Nc3ncc(F)c(Nc4cccc(O)c4)n3)ccc2o1 [Compound R926493]
- pIC50 (Jurkat cells): < 5.36

- pIC50 (Syk kinase): 6.89
- pIC50 [9]: 5.45
- pIC50 (Primary human B-cells): 6.06
Compound: O=C1Nc2cc(Nc3ncc(F)c(Nc4ccc5c(c4)NC(=O)C(F)(F)O5)n3)ccc2OC1(F)F [Compound R940352]
- inhibition of FcγRI-mediated degranulation [10]: inhibit FcγRI-mediated degranulation

- pIC50 [11]: < 5.00
- pIC50 [12]: < 5.00
- pIC50 [9]: < 5.00
Compound: Fc1cnc(Nc2ccc3c(c2)OC(F)(F)C(F)(F)O3)nc1Nc1ccc2c(c1)OC(F)(F)C(F)(F)O2 [Compound R926037]

- pIC50 [9]: 5.81
- pIC50 (Primary human B-cells): 6.10
- pIC50 [14]: 5.95
- pIC50 [15]: 6.03
Compound: CNC(=O)COc1cccc(Nc2ncc(F)c(Nc3ccc(OC)c(Cl)c3)n2)c1 [Compound R926891]
- inhibition of edema formation ([13]; 60 minutes prior to challenge): 54.9%
- % inhibition to vehicle control Edema Size ± SEM ([13]; pretreatment time 0.5 hrs): 44.8 ± 3.0%
- % inhibition to vehicle control Edema Size ± SEM ([13]; pretreatment time 1 hrs): 46.2 ± 4.1% and 54.9%
- % inhibition to vehicle control Edema Size ± SEM ([13]; pretreatment time 1.5 hrs): 28.1 ± 10.6%
